From patent publication US9187465B2, “Oxazole tyrosine kinase inhibitors” (Sareum Limited, priority 2007, dated 2015)

Tests used:
Assay type in all cases: biochemical
human Aurora A = target: T1, human Aurora A (Homo sapiens, UniProt O14965); assay: Aurora A kinase assay (DELFIA enzyme inhibition); conditions: read-out: Aurora A IC50
T1 construct: Histidine tag (N); host or cells: Sf9 insect cells (baculovirus)
T1 sequence (O14965 1-403): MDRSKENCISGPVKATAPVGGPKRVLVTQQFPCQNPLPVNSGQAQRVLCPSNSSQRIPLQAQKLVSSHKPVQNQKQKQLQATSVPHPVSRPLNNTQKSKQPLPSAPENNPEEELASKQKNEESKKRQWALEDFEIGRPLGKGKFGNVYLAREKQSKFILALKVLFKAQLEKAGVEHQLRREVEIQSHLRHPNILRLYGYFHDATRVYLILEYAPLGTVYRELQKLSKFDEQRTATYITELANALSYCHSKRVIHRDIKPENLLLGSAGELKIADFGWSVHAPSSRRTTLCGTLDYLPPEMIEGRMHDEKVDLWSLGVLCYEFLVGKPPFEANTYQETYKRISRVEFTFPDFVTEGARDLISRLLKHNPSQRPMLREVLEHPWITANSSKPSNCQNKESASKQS
Outline: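 DELFIA read-out (time-resolved Eu fluorescence, 620 nm emission) after Neutravidin capture of biotinylated peptide substrate and antibody detection. Reaction: Ni-agarose-purified Aurora A, 30 min at room temperature, stopped with 100 mM EDTA.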

human FLT4 = target: T2, human FLT4 (Homo sapiens, UniProt P35916); assay: FLT4 kinase assay (DELFIA enzyme inhibition); conditions: read-out: FLT4 IC50
T2 construct: a construct expressing the human FLT4 (789-1207) with an amino terminal GST tag; host or cells: Sf9 insect cells (baculovirus)
T2 sequence (P35916 789-1207): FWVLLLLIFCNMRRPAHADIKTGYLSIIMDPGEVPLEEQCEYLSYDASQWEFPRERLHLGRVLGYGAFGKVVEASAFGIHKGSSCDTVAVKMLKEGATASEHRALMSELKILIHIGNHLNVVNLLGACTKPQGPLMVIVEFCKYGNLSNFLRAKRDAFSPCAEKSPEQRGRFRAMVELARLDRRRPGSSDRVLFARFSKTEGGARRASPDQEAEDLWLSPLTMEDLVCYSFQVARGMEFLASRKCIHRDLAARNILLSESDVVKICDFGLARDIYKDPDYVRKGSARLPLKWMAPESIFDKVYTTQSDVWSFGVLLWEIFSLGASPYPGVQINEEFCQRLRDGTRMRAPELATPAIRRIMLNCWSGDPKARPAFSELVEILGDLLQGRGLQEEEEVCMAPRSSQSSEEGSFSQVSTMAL
Outline: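 GST-tagged human FLT4 (789-1207) from Sf9 cells phosphorylates a biotinylated MET (Tyr1253)-derived peptide for 30 min at room temperature, stopped with EDTA. Phosphopeptide is captured on Neutravidin and detected with Eu-labelled anti-phosphotyrosine antibody by time-resolved fluorescence; IC50 from % inhibition curves.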

human FLT3 = target: T3, human FLT3 (Homo sapiens, UniProt P36888); assay: FLT3 kinase assay (DELFIA enzyme inhibition)
T3 construct: a construct expressing the human FLT3 (564-993) with an amino terminal GST tag; host or cells: Sf9 insect cells (baculovirus)
T3 sequence (P36888 564-993): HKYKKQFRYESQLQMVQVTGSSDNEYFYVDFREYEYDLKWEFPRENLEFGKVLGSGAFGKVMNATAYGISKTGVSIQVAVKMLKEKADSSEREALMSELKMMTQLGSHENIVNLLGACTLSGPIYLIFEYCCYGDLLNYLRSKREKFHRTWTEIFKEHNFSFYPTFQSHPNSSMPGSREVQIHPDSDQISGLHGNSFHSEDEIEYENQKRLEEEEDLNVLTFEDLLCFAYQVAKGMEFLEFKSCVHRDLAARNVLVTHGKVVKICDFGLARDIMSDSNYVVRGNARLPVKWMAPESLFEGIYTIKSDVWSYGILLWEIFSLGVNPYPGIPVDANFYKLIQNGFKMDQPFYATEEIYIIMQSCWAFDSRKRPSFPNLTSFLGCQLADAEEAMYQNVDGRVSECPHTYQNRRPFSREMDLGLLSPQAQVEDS
Outline: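 GST-tagged human FLT3 (564-993), expressed in sf9 cells, phosphorylated a biotinylated Gastrin Precursor (Tyr 87)-derived peptide for 30 min at room temperature before EDTA stop. The captured peptide was detected by Eu-labelled anti-phosphotyrosine DELFIA time-resolved fluorescence. IC50 was derived from % inhibition curves.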

SMILES | IC50 (human Aurora A) | IC50 (human FLT4) | IC50 (human FLT3)
NC(=O)c1nc(-c2c(F)cccc2F)oc1-c1ccc(OCCN2CCN(CCO)CC2)cc1 [Example S-7, 2-(2,6-difluorophenyl)-5-(4-(2-(4-(2-hydroxyethyl)piperazin-1-yl)ethoxy)phenyl)oxazole-4-carboxamide] | < 10 µM | < 10 µM | < 10 µM
CN(CCO)CCOc1ccc(-c2oc(-c3c(F)cccc3F)nc2C(N)=O)cc1 [Example S-8, 2-(2,6-difluorophenyl)-5-(4-(2-((2-hydroxyethyl)(methyl)amino)ethoxy)phenyl)oxazole-4-carboxamide] | < 10 µM | < 10 µM | < 10 µM
NC(=O)c1nc(-c2c(F)cccc2F)oc1-c1ccc(OCCN2CCNC(=O)C2)cc1 [Example S-9, 2-(2,6-difluorophenyl)-5-(4-(2-(3-oxopiperazin-1-yl)ethoxy)phenyl)oxazole-4-carboxamide] | < 10 µM | < 10 µM | < 10 µM
NC(=O)c1nc(-c2c(F)cccc2F)oc1-c1ccc(OCCN2CCC(C(N)=O)CC2)cc1 [Example S-10, 1-(2-(4-(4-carbamoyl-2-(2,6-difluorophenyl)oxazol-5-yl)phenoxy)ethyl)piperidine-4-carboxamide] | < 10 µM | < 10 µM | < 10 µM
CN(CCOc1ccc(-c2oc(-c3c(F)cccc3F)nc2C(N)=O)cc1)Cc1ccccc1 [Example S-11, 5-(4-(2-(benzyl(methyl)amino)ethoxy)phenyl)-2-(2,6-difluorophenyl)oxazole-4-carboxamide] | < 100 µM | < 10 µM | < 10 µM
NC(=O)c1nc(-c2c(F)cccc2F)oc1-c1ccc(OCCCN2CCCCC2)cc1 [Example S-12, 2-(2,6-difluorophenyl)-5-(4-(3-(piperidin-1-yl)propoxy)phenyl)oxazole-4-carboxamide] | < 10 µM | < 10 µM | < 10 µM
NC(=O)c1nc(-c2c(F)cccc2F)oc1-c1ccc(OCCCN2CCOCC2)cc1 [Example S-13, 2-(2,6-difluorophenyl)-5-(4-(3-morpholinopropoxy)phenyl)oxazole-4-carboxamide] | < 10 µM | < 10 µM | < 10 µM
NC(=O)c1nc(-c2c(F)cccc2F)oc1-c1ccc(OCC(O)CN2CCCCC2)cc1 (stereo not drawn) [Example T-1, 2-(2,6-difluorophenyl)-5-(4-(2-hydroxy-3-(piperidin-1-yl)propoxy)phenyl)oxazole-4-carboxamide] | < 10 µM | < 10 µM | < 10 µM
NC(=O)c1nc(-c2c(F)cccc2F)oc1-c1ccc(OCC(O)CN2CCOCC2)cc1 (stereo not drawn) [Example T-2, 2-(2,6-difluorophenyl)-5-(4-(2-hydroxy-3-morpholinopropoxy)phenyl)oxazole-4-carboxamide] | < 10 µM | < 10 µM | < 10 µM
CN1CCN(CC(O)COc2ccc(-c3oc(-c4c(F)cccc4F)nc3C(N)=O)cc2)CC1 (stereo not drawn) [Example T-3, 2-(2,6-difluorophenyl)-5-(4-(2-hydroxy-3-(4-methylpiperazin-1-yl)propoxy)phenyl)oxazole-4-carboxamide] | < 10 µM | < 10 µM | < 10 µM
NC(=O)c1nc(-c2c(F)cccc2F)oc1-c1ccc(OCC(O)CN2CCC(O)CC2)cc1 (stereo not drawn) [Example T-4, 2-(2,6-difluorophenyl)-5-(4-(2-hydroxy-3-(4-hydroxypiperidin-1-yl)propoxy)phenyl)oxazole-4-carboxamide] | < 10 µM | < 10 µM | < 10 µM

Continued, values first:

IC50 (human Aurora A) | IC50 (human FLT4) | IC50 (human FLT3) | SMILES
< 10 µM | < 10 µM | < 10 µM | NC(=O)c1nc(-c2c(F)cccc2F)oc1Nc1ccc(C(=O)O)cc1 [Example U-1, 4-(4-carbamoyl-2-(2,6-difluorophenyl)oxazol-5-ylamino)benzoic acid]
< 10 µM | < 10 µM | < 10 µM | NC(=O)c1nc(-c2c(F)cccc2F)oc1Nc1ccc(C(=O)NCC2CN(Cc3ccccc3)CCO2)cc1 (stereo not drawn) [Example U-5, 5-(4-(((4-benzylmorpholin-2-yl)methyl)carbamoyl)phenylamino)-2-(2,6-difluorophenyl)oxazole-4-carboxamide]
< 10 µM | < 10 µM | < 10 µM | NC(=O)c1nc(-c2c(F)cccc2F)oc1Nc1ccc(C(=O)N2CCC[C@@H]2CO)cc1 [Example U-12, (R)-2-(2,6-difluorophenyl)-5-(4-(2-(hydroxymethyl)pyrrolidine-1-carbonyl)phenylamino)oxazole-4-carboxamide]
< 10 µM | < 10 µM | < 10 µM | NC(=O)c1nc(-c2c(F)cccc2F)oc1Nc1ccc(C(=O)N2CCC[C@H]2CO)cc1 [Example U-13, (S)-2-(2,6-difluorophenyl)-5-(4-(2-(hydroxymethyl)pyrrolidine-1-carbonyl)phenylamino)oxazole-4-carboxamide]
< 10 µM | < 10 µM | < 10 µM | NC(=O)c1nc(-c2c(F)cccc2F)oc1Nc1ccc(C(=O)N2CCCCC2CO)cc1 (stereo not drawn) [Example U-14, 2-(2,6-difluorophenyl)-5-(4-(2-(hydroxymethyl)piperidine-1-carbonyl)phenylamino) oxazole-4-carboxamide]
< 10 µM | < 10 µM | < 10 µM | NC(=O)c1nc(-c2c(F)cccc2F)oc1Nc1ccc(C(=O)N2CCCC(O)C2)cc1 (stereo not drawn) [Example U-15, 2-(2,6-difluorophenyl)-5-(4-(3-hydroxypiperidine-1-carbonyl)phenylamino)oxazole-4-carboxamide]
< 10 µM | < 10 µM | < 10 µM | NC(=O)c1nc(-c2c(F)cccc2F)oc1Nc1ccc(C(=O)NCCO)cc1 [Example U-16, 5-(4-((2-hydroxyethyl)carbamoyl)phenylamino)-2-(2,6-difluorophenyl)oxazole-4-carboxamide]
< 10 µM | < 10 µM | < 10 µM | NC(=O)c1nc(-c2c(F)cccc2F)oc1Nc1ccc(C(=O)NCCCO)cc1 [Example U-17, 5-(4-((3-hydroxypropyl)carbamoyl)phenylamino)-2-(2,6-difluorophenyl)oxazole-4-carboxamide]
< 10 µM | < 10 µM | < 10 µM | CN1CCC(NC(=O)c2ccc(Nc3oc(-c4c(F)cccc4F)nc3C(N)=O)cc2)CC1 [Example U-18, 5-(4-((1-methylpiperidin-4-yl)carbamoyl)phenylamino)-2-(2,6-difluorophenyl) oxazole-4-carboxamide]
< 10 µM | < 10 µM | < 10 µM | NC(=O)c1nc(-c2c(F)cccc2F)oc1Nc1ccc(C(=O)N2CCOCC2CO)cc1 (stereo not drawn) [Example U-19, 2-(2,6-difluorophenyl)-5-(4-(3-(hydroxymethyl)morpholine-4-carbonyl)phenylamino)oxazole-4-carboxamide]
< 100 µM | < 10 µM | < 10 µM | CC(C)(C)OC(=O)N1CCC(NC(=O)c2ccc(Nc3oc(-c4c(F)cccc4F)nc3C(N)=O)cc2)CC1 [Example U-20, tert-butyl 4-(4-(4-carbamoyl-2-(2,6-difluorophenyl)oxazol-5-ylamino)benzamido) piperidine-1-carboxylate]
< 10 µM | < 10 µM | < 10 µM | NC(=O)c1nc(-c2c(F)cccc2F)oc1Nc1ccc(C(=O)NC2CCNCC2)cc1 [Example U-21, 2-(2,6-difluorophenyl)-5-(4-(piperidin-4-ylcarbamoyl)phenylamino)oxazole-4-carboxamide]
< 10 µM | < 10 µM | < 10 µM | CC(C)(C)OC(=O)NCC1CN(C(=O)c2ccc(Nc3oc(-c4c(F)cccc4F)nc3C(N)=O)cc2)CCO1 (stereo not drawn) [Example U-22, tert-butyl (4-(4-(4-carbamoyl-2-(2,6-difluorophenyl)oxazol-5-ylamino)benzoyl)morpholin-2-yl)methylcarbamate]
